Measured values: PMC5488394, “30 YEARS OF THE MINERALOCORTICOID RECEPTOR: Mineralocorticoid receptor antagonists: 60 years of research and development” (The Journal of Endocrinology, 2017)
Like-named read-outs stand apart in the source and are kept apart here.

Key:
[1] = set-up: method as in Filippatos et al. 2016; details: 1066 HFrEF patients; ref Filippatos et al. 2016; cited from earlier work
MR = tested on: MR; set-up: method as in Amazit et al. 2015; details: ref Amazit et al. 2015; cited from earlier work
[2] = cited from earlier work; for absolute change in nocturnal BP: day 90, patients with nocturnal hypertension, ref Ruilope et al. 2016
S810L MR mutant = tested on: S810L MR mutant; set-up: method as in Geller et al. 2000, Amazit et al. 2015; details: ref Geller et al. 2000, Amazit et al. 2015; cited from earlier work
DOCA/salt rats = tested on: DOCA/salt rats; set-up: method as in Kolkhof et al. 2014; details: ref Kolkhof et al. 2014, cited from earlier work
[3] = set-up: method as in Pitt et al. 2013; details: ref Pitt et al. 2013, cited from earlier work
[4] = quantitative whole-body autoradiography, [14C]-labeled, healthy rats; ref Kolkhof et al. 2014; cited from earlier work
[5] = target: T1, ligand binding domain of MR (Homo sapiens, UniProt P08235); experiment: functional cell-based MR transactivation assay in CHO-K1 cells; details: duplicate
T1 construct: expressed in transfected cells; host or cells: CHO-K1
T1 sequence (P08235 726-964 limits assumed): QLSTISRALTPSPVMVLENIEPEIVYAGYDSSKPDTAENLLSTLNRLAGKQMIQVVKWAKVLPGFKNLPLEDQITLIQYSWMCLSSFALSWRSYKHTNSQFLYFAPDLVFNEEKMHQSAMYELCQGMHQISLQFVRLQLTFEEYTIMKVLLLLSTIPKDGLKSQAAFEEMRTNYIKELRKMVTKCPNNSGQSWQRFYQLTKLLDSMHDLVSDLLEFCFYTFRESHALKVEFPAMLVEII

[6] = tested on: SRC-1 recruitment at the promoter of the SCNN1A gene; set-up: method as in Amazit et al. 2015; details: ref Amazit et al. 2015; cited from earlier work
[7] = tested on: MR vs all other steroid hormone receptors; details: ref Bärfacker et al. 2012, Pitt et al. 2012; cited from earlier work
[8] = tested on: mouse model of pressure overload-induced HF; set-up: method as in Grune et al. 2016; details: ref Grune et al. 2016; cited from earlier work

CCOc1ncc(C)c2c1[C@H](c1ccc(C#N)cc1OC)C(C(N)=O)=C(C)N2 [finerenone]
outcome including death and CV hospitalization vs eplerenone [1]: nominally improved outcome | delay of aldosterone-induced nuclear translocation of MR (MR): more efficiently than spironolactone | absolute change in nocturnal BP ([2]; 10 mg dose group): −9.5 mmHg | absolute change in nocturnal BP ([2]; 20 mg dose group): −12.0 mmHg | albuminuria ([2]; 7.5, 10, 15 and 20 mg, 90 days, on top of SoC, ref Bakris et al. 2015): dose-dependent, significant reductions | effect on S810L MR mutant (S810L MR mutant): block | systolic blood pressure vs 100 mg/kg eplerenone (DOCA/salt rats; 10 mg/kg finerenone, head-to-head): significantly lower | reduction of cardiac hypertrophy, pro-BNP and proteinuria vs eplerenone (DOCA/salt rats; equinatriuretic doses): more efficiently than eplerenone | decrease of BNP, NT-pro-BNP and urinary albumin vs spironolactone ([3]; 5 and 10 mg OD vs spironolactone 25 or 50 mg/day): at least as effective as spironolactone | incidence of hyperkalemia vs spironolactone ([3]; 5 and 10 mg OD): significantly lower incidence | increases in serum potassium vs spironolactone ([3]; 5 and 10 mg OD): significantly lower increases | distribution into cardiac and kidney tissues [4]: balanced distribution | IC50 ([5]; agonist DOCA 10 nM, read-out: IC50 vs DOCA as agonist): 46 nM | IC50 ([5]; agonist corticosterone 1 nM, read-out: IC50 vs corticosterone as agonist): 24 nM | IC50 ([5]; agonist cortisol 10 nM, read-out: IC50 vs cortisol as agonist): 5 nM | mode of action on SRC-1 recruitment [6]: inverse agonist | selectivity toward MR [7]: at least 500 fold | prevention of myocardial hypertrophy vs eplerenone [8]: more pronounced prevention of myocardial hypertrophy
